Laboratory results: patent publication US12495798B2, “Nicotinamide compound and herbicidal composition comprising compound” (KOREA RESEARCH INSTITUTE OF CHEMICAL TECHNOLOGY, priority 2019, dated 2025)

How the values were obtained:
Assay type in all cases: in vivo
[1] = system: sorghum; assay: Herbicidal activity test against upland field weeds (foliar treatment test); details: Sorghum, 50 g ai/ha, scale 0-100
In short: (§1)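 Greenhouse-grown plants (30±5 °C, 14/10 h light/dark) foliar hand-sprayed with compound in 50% acetone, 0.1% Tween-20 at 50 or 75 g a.i./ha. Control visually scored 0 (none) to 100 (complete) versus untreated after 14 days, or 21 days if needed.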

[2] = system: crabgrass; assay: as above; details: Digitaria sanguinalis, 50 g ai/ha, scale 0-100
In short: as §1

[3] = system: quack grass; assay: Herbicidal activity test against upland field weeds (soil treatment test); design: key to Soil treatment herbicidal activity, quack grass: 0 (no control); 100 (complete control); details: 50 g ai/ha, scale 0 (no control) to 100 (complete control)
In short: (§2)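 Pre-emergence soil surface spray, day after sowing, into sandy loam pots with fertilizer; compounds at 50 or 75 g a.i./ha in 50% acetone, 0.1% Tween-20. Greenhouse at 30±5 °C, 14/10 h light/dark; visual control rated 0–100 against untreated after 14 days (21 if needed).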

[4] = system: crabgrass; assay: as above; design: key to Soil treatment herbicidal activity, Crabgrass: 0 (no control); 100 (complete control); details: 50 g ai/ha, scale 0 (no control) to 100 (complete control)
In short: as §2

[5] = system: cotton; assay: Phytotoxicity test for field crops (soil treatment test); design: key: 0 (no harm); 9 (complete withered)
In short: (§3)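 Visual injury grade 0–9 (0 no harm, 9 complete withered), relative to untreated control, read 10 and 20 days post-treatment. Compounds were sprayed onto soil one day after sowing at 19˜300 g a.i./ha in 33% acetone, 0.1% Tween-20, with plants then grown in a greenhouse at 30±5° C.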

[6] = system: corn; assay: as above; design: key: 0 (no harm); 9 (complete withered)
In short: as §3

[7] = system: wheat; assay: as above; design: key: 0 (no harm); 9 (complete withered)
In short: as §3

[8] = system: soybean; assay: as above; design: key: 0 (no harm); 9 (complete withered)
In short: as §3

[9] = system: rice; assay: as above; design: key: 0 (no harm); 9 (complete withered)
In short: as §3

[10] = system: velvetleaf; assay: Herbicidal activity test against upland field weeds (foliar treatment test); design: key to Foliar treatment herbicidal activity, velvet leaf: 0 (no control); 100 (complete control); details: 50 g ai/ha; for pest or weed control at 50 g/ha: Abutilon theophrasti, scale 0-100, read-out: Foliar treatment herbicidal activity, velvet leaf
In short: as §1

[11] = system: barnyard grass; assay: Herbicidal activity test against upland field weeds (soil treatment test); design: key to Soil treatment herbicidal activity, barnyard grass: 0 (no control); 100 (complete control); details: 50 g ai/ha, scale 0 (no control) to 100 (complete control); for pest or weed control at 50 g/ha: Echinochloa crus-galli
In short: as §2

[12] = system: sorghum; assay: as above; details: Sorghum, 50 g ai/ha, scale 0 (no control) to 100 (complete control)
In short: as §2

[13] = system: indian jointvetch; assay: Herbicidal activity test against upland field weeds (foliar treatment test); details: 50 g ai/ha, scale 0-100
In short: as §1

[14] = system: fall panicum; assay: Herbicidal activity test against upland field weeds (soil treatment test); details: Panicum dichotomiflorum, 50 g ai/ha, scale 0 (no control) to 100 (complete control)
In short: as §2

[15] = 50 g ai/ha, Cotton (10 days after treatment)
[16] = 50 g ai/ha, Cotton (20 days after treatment)
[17] = 100 g ai/ha, Cotton (10 days after treatment)
[18] = 100 g ai/ha, Cotton (20 days after treatment)
[19] = 50 g ai/ha, Corn (10 days after treatment)
[20] = 50 g ai/ha, Corn (20 days after treatment)
[21] = 100 g ai/ha, Corn (10 days after treatment)
[22] = 100 g ai/ha, Corn (20 days after treatment)
[23] = 50 g ai/ha, Wheat (10 days after treatment)
[24] = 50 g ai/ha, Wheat (20 days after treatment)
[25] = 100 g ai/ha, Wheat (10 days after treatment)
[26] = 100 g ai/ha, Wheat (20 days after treatment)
[27] = 50 g ai/ha, Soybean (10 days after treatment)
[28] = 50 g ai/ha, Soybean (20 days after treatment)
[29] = 100 g ai/ha, Soybean (10 days after treatment)
[30] = 100 g ai/ha, Soybean (20 days after treatment)
[31] = 50 g ai/ha, Rice (10 days after treatment)
[32] = 50 g ai/ha, Rice (20 days after treatment)
[33] = 100 g ai/ha, Rice (10 days after treatment)
[34] = 100 g ai/ha, Rice (20 days after treatment)

SMILES | plant injury at 50 g/ha [1] [%] | pest or weed control at 50 g/ha [2] [%] | Soil treatment herbicidal activity, quack grass [3] | Soil treatment herbicidal activity, Crabgrass [4] | Soil treatment phytotoxicity, Cotton [5, 15] | Soil treatment phytotoxicity, Cotton [5, 16] | Soil treatment phytotoxicity, Cotton [5, 17] | Soil treatment phytotoxicity, Cotton [5, 18] | Soil treatment phytotoxicity, Corn [6, 19] | Soil treatment phytotoxicity, Corn [6, 20] | Soil treatment phytotoxicity, Corn [6, 21] | Soil treatment phytotoxicity, Wheat [7, 23] | Soil treatment phytotoxicity, Wheat [7, 24] | Soil treatment phytotoxicity, Soybean [8, 27] | Soil treatment phytotoxicity, Soybean [8, 28] | Soil treatment phytotoxicity, Rice [9, 31] | Soil treatment phytotoxicity, Rice [9, 32] | plant injury at 50 g/ha [12] [%] | pest or weed control at 50 g/ha [13] [%] | pest or weed control at 50 g/ha [14] [%] | further results
Cn1nnc(COCc2nc(C(F)(F)F)ccc2C(=O)N(C(=O)c2ccccc2)c2nnnn2C)n1 [Compound No. 2-68, N-benzoyl-N-(1-methyl-1H-tetrazol-5-yl)-2-(((2-methyl-2H-tetrazol-5-yl)methoxy)methyl)-6-(trifluoromethyl)nicotinamide] | 80 | 98 | 0 | 100 | 1 | 5 | 3 | 9 | 0 | 0 | 0 | 0 | 0 | 0 | 0 | 6 | 7 | 40 | 98 | 90 | Soil treatment phytotoxicity, Corn [6, 22]: 0; Soil treatment phytotoxicity, Wheat [7, 25]: 0; Soil treatment phytotoxicity, Wheat [7, 26]: 0; Soil treatment phytotoxicity, Soybean [8, 29]: 0; Soil treatment phytotoxicity, Soybean [8, 30]: 0; Soil treatment phytotoxicity, Rice [9, 33]: 8; Soil treatment phytotoxicity, Rice [9, 34]: 9; Foliar treatment herbicidal activity, velvet leaf ([10]; scale 0-100): 100; pest or weed control at 50 g/ha [11]: 98%
Cn1nnc(COCc2nc(C(F)(F)F)ccc2C(=O)N(c2nnnn2C)S(C)(=O)=O)n1 [Compound No. 2-69, N-(1-methyl-1H-tetrazol-5-yl)-2-(((2-methyl-2H-tetrazol-5-yl)methoxy)methyl)-N-(methylsulfonyl)-6-(trifluoromethyl)nicotinamide] | 40 | 70 | 0 |  | 1 | 5 |  |  | 0 | 0 |  | 0 | 1 | 0 | 0 | 7 | 8 | 70 | 80 | 98 | pest or weed control at 50 g/ha ([4]; Digitaria sanguinalis): 98%; pest or weed control at 50 g/ha [10]: 80%; pest or weed control at 50 g/ha [11]: 100%
Cn1nnc(COCc2nc(C(F)(F)Cl)ccc2C(=O)Nc2nnnn2C)n1 [Compound No. 2-78, 6-(chlorodifluoromethyl)-N-(1-methyl-1H-tetrazol-5-yl)-2-(((2-methyl-2H-tetrazol-5-yl)methoxy)methyl)nicotinamide] | 30 | 70 | 0 | 100 | 2 | 6.5 | 3 | 9 | 0 | 0 | 1 | 0 | 0 | 0 | 0 | 6 | 6 | 50 | 80 | 90 | Soil treatment phytotoxicity, Corn [6, 22]: 0; Soil treatment phytotoxicity, Wheat [7, 25]: 0; Soil treatment phytotoxicity, Wheat [7, 26]: 0; Soil treatment phytotoxicity, Soybean [8, 29]: 0; Soil treatment phytotoxicity, Soybean [8, 30]: 0; Soil treatment phytotoxicity, Rice [9, 33]: 9; Soil treatment phytotoxicity, Rice [9, 34]: 9; pest or weed control at 50 g/ha [10]: 60%; Soil treatment herbicidal activity, barnyard grass [11]: 100
Cn1nnc(COCc2nc(C(F)(F)C(F)(F)F)ccc2C(=O)Nc2nnnn2C)n1 [Compound No. 2-81, N-(1-methyl-1H-tetrazol-5-yl)-2-(((2-methyl-2H-tetrazol-5-yl)methoxy)methyl)-6-(perfluoroethyl)nicotinamide] | 40 | 70 | 0 | 100 | 0 | 4 | 1 | 6 | 0 | 0 | 1 | 0 | 0 | 0 | 0 | 6 | 7 | 50 | 80 | 98 | Soil treatment phytotoxicity, Corn [6, 22]: 0; Soil treatment phytotoxicity, Wheat [7, 25]: 0; Soil treatment phytotoxicity, Wheat [7, 26]: 0; Soil treatment phytotoxicity, Soybean [8, 29]: 0; Soil treatment phytotoxicity, Soybean [8, 30]: 0; Soil treatment phytotoxicity, Rice [9, 33]: 8; Soil treatment phytotoxicity, Rice [9, 34]: 8; pest or weed control at 50 g/ha [10]: 90%; Soil treatment herbicidal activity, barnyard grass [11]: 100
